Experimental data published in PubChem BioAssay AID256 (DTP/NCI, 2004).
Values joined by “and” are separate entries in the source; they are usually repeats but may differ in a detail not shown here. Equal entries are not always repeated. Toxic doses and inconclusive results are not listed.

Tested on: CD2F1 mice, L1210 leukemia ip, survival T/C
Test: NCI In Vivo Anticancer Drug Screen. Data for tumor model L1210 Leukemia (intraperitoneal) in CD2F1 (CDF1) mice
Settings: higher = longer survival
Summary of the method: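 Tumor-bearing mice (transplanted tumor) were split into treated and vehicle control groups, and the measured endpoint of each treated group was divided by that of its vehicle controls.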

Compound: Nc1ncn(C2OC(CO)C(O)C2O)c(=O)n1 (stereo not given)
- T/C (endpoint: mean survival time, dose: 1.56 mg/kg/injection, schedule: Q01DX009 (ip), vehicle: saline): 155 % of control and 166 % of control
- T/C (endpoint: mean survival time, dose: 1.56 mg/kg/injection, schedule: Q04DX003 (ip), vehicle: saline): 117 % of control
- T/C (endpoint: mean survival time, dose: 3.12 mg/kg/injection, schedule: Q01DX009 (ip), vehicle: saline): 176 % of control
- T/C (endpoint: mean survival time, dose: 3.12 mg/kg/injection, schedule: Q03HX024 (ip), vehicle: saline): 296 % of control
- T/C (endpoint: mean survival time, dose: 3.12 mg/kg/injection, schedule: Q04DX003 (ip), vehicle: saline): 119 % of control and 120 % of control and 123 % of control
- T/C (endpoint: mean survival time, dose: 6.25 mg/kg/injection, schedule: Q03HX024 (ip), vehicle: saline): 325 % of control
- T/C (endpoint: mean survival time, dose: 6.25 mg/kg/injection, schedule: Q04DX003 (ip), vehicle: saline): 121 % of control and 123 % of control
- T/C (endpoint: mean survival time, dose: 10.0 mg/kg/injection, schedule: Q04DX003 (ip), vehicle: saline): 112 % of control
- T/C (endpoint: mean survival time, dose: 12.5 mg/kg/injection, schedule: Q03HX024 (ip), vehicle: saline): 353 % of control
- T/C (endpoint: mean survival time, dose: 12.5 mg/kg/injection, schedule: Q04DX003 (ip), vehicle: saline): 151 % of control
- T/C (endpoint: mean survival time, dose: 25.0 mg/kg/injection, schedule: Q03HX024 (ip), vehicle: saline): 295 % of control
- T/C (endpoint: mean survival time, dose: 25.0 mg/kg/injection, schedule: Q04DX003 (ip), vehicle: saline): 167 % of control
- T/C (endpoint: mean survival time, dose: 50.0 mg/kg/injection, schedule: Q03HX024 (ip), vehicle: saline): 248 % of control
- T/C (endpoint: mean survival time, dose: 50.0 mg/kg/injection, schedule: Q04DX003 (ip), vehicle: saline): 163 % of control and 173 % of control
- T/C (endpoint: mean survival time, dose: 100.0 mg/kg/injection, schedule: Q03HX024 (ip), vehicle: saline): 124 % of control
- T/C (endpoint: mean survival time, dose: 200.0 mg/kg/injection, schedule: Q04DX003 (ip), vehicle: saline): 182 % of control and 190 % of control and 200 % of control
- T/C (endpoint: mean survival time, dose: 400.0 mg/kg/injection, schedule: Q04DX003 (ip), vehicle: saline): 222 % of control
- T/C (endpoint: mean survival time, dose: 800.0 mg/kg/injection, schedule: Q04DX003 (ip), vehicle: saline): 269 % of control
- T/C (endpoint: mean survival time, dose: 1600.0 mg/kg/injection, schedule: Q04DX003 (ip), vehicle: saline): 222 % of control
- T/C (endpoint: median survival time, dose: 1.56 mg/kg/injection, schedule: Q01DX009 (ip), vehicle: other): 156 % of control
- T/C (endpoint: median survival time, dose: 2.3 mg/kg/injection, schedule: Q03HX024 (ip), vehicle: DMSO): 292 % of control
- T/C (endpoint: median survival time, dose: 3.12 mg/kg/injection, schedule: Q01DX009 (ip), vehicle: other): 163 % of control and 172 % of control
- T/C (endpoint: median survival time, dose: 3.12 mg/kg/injection, schedule: Q01DX009 (ip), vehicle: saline): 162 % of control and 177 % of control
- T/C (endpoint: median survival time, dose: 4.0 mg/kg/injection, schedule: Q03HX024 (ip), vehicle: saline): 348 % of control
- T/C (endpoint: median survival time, dose: 6.25 mg/kg/injection, schedule: Q01DX009 (ip), vehicle: DMSO): 210 % of control and 228 % of control
- T/C (endpoint: median survival time, dose: 6.25 mg/kg/injection, schedule: Q01DX009 (ip), vehicle: other): 192 % of control and 193 % of control
- T/C (endpoint: median survival time, dose: 6.25 mg/kg/injection, schedule: Q01DX009 (ip), vehicle: saline): 198 % of control and 202 % of control and 212 % of control
- T/C (endpoint: median survival time, dose: 6.25 mg/kg/injection, schedule: Q01DX009 (oral), vehicle: DMSO): 191 % of control
- T/C (endpoint: median survival time, dose: 7.0 mg/kg/injection, schedule: Q03HX008 (ip), vehicle: DMSO): 179 % of control
- T/C (endpoint: median survival time, dose: 11.2 mg/kg/injection, schedule: Q01DX005 (ip), vehicle: DMSO): 181 % of control
- T/C (endpoint: median survival time, dose: 11.2 mg/kg/injection, schedule: Q01DX005 (iv), vehicle: DMSO): 176 % of control
- T/C (endpoint: median survival time, dose: 12.5 mg/kg/injection, schedule: Q01DX009 (ip), vehicle: DMSO): 224 % of control and 258 % of control
- T/C (endpoint: median survival time, dose: 12.5 mg/kg/injection, schedule: Q01DX009 (ip), vehicle: other): 214 % of control and 219 % of control
- T/C (endpoint: median survival time, dose: 12.5 mg/kg/injection, schedule: Q01DX009 (oral), vehicle: DMSO): 225 % of control
- T/C (endpoint: median survival time, dose: 14.0 mg/kg/injection, schedule: Q03HX008 (ip), vehicle: DMSO): 174 % of control
- T/C (endpoint: median survival time, dose: 22.5 mg/kg/injection, schedule: Q01DX005 (ip), vehicle: DMSO): 187 % of control
- T/C (endpoint: median survival time, dose: 22.5 mg/kg/injection, schedule: Q01DX005 (iv), vehicle: DMSO): 201 % of control
- T/C (endpoint: median survival time, dose: 25.0 mg/kg/injection, schedule: Q01DX009 (ip), vehicle: DMSO): 260 % of control and 273 % of control
- T/C (endpoint: median survival time, dose: 25.0 mg/kg/injection, schedule: Q01DX009 (ip), vehicle: other): 237 % of control and 265 % of control
- T/C (endpoint: median survival time, dose: 25.0 mg/kg/injection, schedule: Q01DX009 (oral), vehicle: DMSO): 233 % of control
- T/C (endpoint: median survival time, dose: 28.1 mg/kg/injection, schedule: Q03HX008 (ip), vehicle: DMSO): 186 % of control
- T/C (endpoint: median survival time, dose: 30.0 mg/kg/injection, schedule: Q01DX009 (ip), vehicle: saline): 267 % of control and 278 % of control
- T/C (endpoint: median survival time, dose: 37.5 mg/kg/injection, schedule: Q04DX003 (ip), vehicle: DMSO): 163 % of control
- T/C (endpoint: median survival time, dose: 44.0 mg/kg/injection, schedule: Q01DX009 (ip), vehicle: saline): 278 % of control and 284 % of control
- T/C (endpoint: median survival time, dose: 45.0 mg/kg/injection, schedule: Q01DX005 (ip), vehicle: DMSO): 208 % of control
- T/C (endpoint: median survival time, dose: 45.0 mg/kg/injection, schedule: Q01DX005 (iv), vehicle: DMSO): 212 % of control
- T/C (endpoint: median survival time, dose: 50.0 mg/kg/injection, schedule: Q01DX009 (ip), vehicle: DMSO): 289 % of control and 310 % of control
- T/C (endpoint: median survival time, dose: 50.0 mg/kg/injection, schedule: Q01DX009 (ip), vehicle: other): 262 % of control and 289 % of control
- T/C (endpoint: median survival time, dose: 50.0 mg/kg/injection, schedule: Q01DX009 (oral), vehicle: DMSO): 266 % of control
- T/C (endpoint: median survival time, dose: 56.2 mg/kg/injection, schedule: Q01DX001 (ip), vehicle: DMSO): 123 % of control
- T/C (endpoint: median survival time, dose: 56.2 mg/kg/injection, schedule: Q03HX008 (ip), vehicle: DMSO): 191 % of control
- T/C (endpoint: median survival time, dose: 67.0 mg/kg/injection, schedule: Q01DX009 (ip), vehicle: saline): 326 % of control and 328 % of control
- T/C (endpoint: median survival time, dose: 75.0 mg/kg/injection, schedule: Q04DX003 (ip), vehicle: DMSO): 173 % of control
- T/C (endpoint: median survival time, dose: 90.0 mg/kg/injection, schedule: Q01DX005 (ip), vehicle: DMSO): 221 % of control
- T/C (endpoint: median survival time, dose: 90.0 mg/kg/injection, schedule: Q01DX005 (iv), vehicle: DMSO): 242 % of control
- T/C (endpoint: median survival time, dose: 100.0 mg/kg/injection, schedule: Q01DX009 (ip), vehicle: DMSO): 172 % of control
- T/C (endpoint: median survival time, dose: 100.0 mg/kg/injection, schedule: Q01DX009 (ip), vehicle: other): 150 % of control and 277 % of control
- T/C (endpoint: median survival time, dose: 100.0 mg/kg/injection, schedule: Q01DX009 (oral), vehicle: DMSO): 310 % of control
- T/C (endpoint: median survival time, dose: 112.5 mg/kg/injection, schedule: Q03HX008 (ip), vehicle: DMSO): 198 % of control
- T/C (endpoint: median survival time, dose: 150.0 mg/kg/injection, schedule: Q04DX003 (ip), vehicle: DMSO): 198 % of control
- T/C (endpoint: median survival time, dose: 180.0 mg/kg/injection, schedule: Q01DX005 (ip), vehicle: DMSO): 242 % of control
- T/C (endpoint: median survival time, dose: 180.0 mg/kg/injection, schedule: Q01DX005 (iv), vehicle: DMSO): 276 % of control
- T/C (endpoint: median survival time, dose: 200.0 mg/kg/injection, schedule: Q01DX009 (ip), vehicle: DMSO): 123 % of control
- T/C (endpoint: median survival time, dose: 225.0 mg/kg/injection, schedule: Q01DX001 (iv), vehicle: DMSO): 157 % of control
- T/C (endpoint: median survival time, dose: 225.0 mg/kg/injection, schedule: Q03HX008 (ip), vehicle: DMSO): 180 % of control
- T/C (endpoint: median survival time, dose: 300.0 mg/kg/injection, schedule: Q04DX003 (ip), vehicle: DMSO): 243 % of control
- T/C (endpoint: median survival time, dose: 400.0 mg/kg/injection, schedule: Q01DX009 (ip), vehicle: DMSO): 117 % of control
- T/C (endpoint: median survival time, dose: 400.0 mg/kg/injection, schedule: Q01DX009 (ip), vehicle: saline): 113 % of control
- T/C (endpoint: median survival time, dose: 400.0 mg/kg/injection, schedule: Q01DX009 (oral), vehicle: DMSO): 117 % of control
- T/C (endpoint: median survival time, dose: 600.0 mg/kg/injection, schedule: Q04DX003 (ip), vehicle: DMSO): 252 % of control
- T/C (endpoint: median survival time, dose: 900.0 mg/kg/injection, schedule: Q01DX001 (ip), vehicle: DMSO): 162 % of control
- T/C (endpoint: median survival time, dose: 1200.0 mg/kg/injection, schedule: Q04DX003 (ip), vehicle: DMSO): 284 % of control
- T/C (endpoint: median survival time, dose: 1800.0 mg/kg/injection, schedule: Q01DX001 (ip), vehicle: DMSO): 191 % of control
- T/C (endpoint: median survival time, dose: 2400.0 mg/kg/injection, schedule: Q04DX003 (ip), vehicle: DMSO): 290 % of control
- T/C (endpoint: median survival time, dose: 3600.0 mg/kg/injection, schedule: Q01DX001 (ip), vehicle: DMSO): 223 % of control
